Assay results reported in US20250353858A1, “CONDENSED HETEROCYCLIC COMPOUNDS AS INHIBITOR OF DIACYLGLYCEROL KINASES” (BEONE MEDICINES I GMBH, priority 2023, published 2025).
Blank lines part the entries; values can stand above or below the molecule they belong to.

Experiments:
DGKζ = DGKζ (Homo sapiens (Human), UniProt Q13574); test: Biochemical DGK IC50 assay (ADP-Glo, lipid micelle substrate), DGKζ; conditions: full length DGKζ 0.5 nM, ATP 140 μM, DAG 80 μM
Method: (§1) Enzymatic reactions of DGKζ, DGKα and DGKδ were performed using ADP-Glo assay with lipid micelle substrate. […] Full length DGKα (D21-10BG, SignalChem) and full length DGKδ (D23-10G, SignalChem) were purchased. Lipid micelle was prepared by dissolving DAG (Sigma, 317505-10MG) and PS (Sigma, P7769-100MG) with chloroform which was furtherly removed by rotary evaporation. The resulted product was resuspended in buffer containing 25 mM HEPES pH 7.0, 0.5 mM EDTA and 160 mM Octyl β-D glucopyranoside by vigorous mixing and ultrasonic (IID, Scientz).
(§2) The inhibition activities testing for the compound disclosed herein were carried out at room temperature in assay buffer containing 50 mM HEPES, 10 mM MgCl2, 0.01% BSA, 0.1 mM Na3VO4, 0.005% Tween-20 and 0.01 mM CaCl2. Compounds in DMSO were dispensed into wells of a black 384 well plate (Corning 4514) using D300e digital dispenser (Tecan). […] 3 μL 2× enzyme solution was added to wells. […] After 1 hour reaction, 5 μL ADP-Glo reagent (Promga V9101) was added and incubated for 40 minutes. 10 μL Kinase Detection reagent was added and incubated for 30 minutes. Luminescence was measured on a microplate reader (PHERAstar FSX, BMG labtech). The IC50s are calculated based on inhibition of enzyme activity in the presence of increasing concentrations of compounds.
Human His-TEV-DGK-zeta-pFastBac1 and human baculovirus samples was generated using the Bac-to-Bac baculovirus expression system (Invitrogen) according to the manufacturer's protocol. The DNA used for expression of DGK-zeta, have SEQ ID Nos: 1. Baculovirus amplification was achieved using infected SF9 cells at 1:2000 virus/cells ratios, and grown for 96 hours at 27° C. post-transfected.
Full length human DGKζ produced as described above, was purified from Sf9 baculovirus-infected insect cell paste. The cells were lysed using sonication method, and the lysates were clarified by centrifugation.

DGKα = DGKα (Homo sapiens (Human), UniProt P23743); test: Biochemical DGK IC50 assay (ADP-Glo, lipid micelle substrate), DGKα; conditions: full length DGKα […], ATP 140 μM, DAG 80 μM; further: full length DGKα 7.5 nM
Method: as §1, §2

Chain of DGKα (P23743 whole entry): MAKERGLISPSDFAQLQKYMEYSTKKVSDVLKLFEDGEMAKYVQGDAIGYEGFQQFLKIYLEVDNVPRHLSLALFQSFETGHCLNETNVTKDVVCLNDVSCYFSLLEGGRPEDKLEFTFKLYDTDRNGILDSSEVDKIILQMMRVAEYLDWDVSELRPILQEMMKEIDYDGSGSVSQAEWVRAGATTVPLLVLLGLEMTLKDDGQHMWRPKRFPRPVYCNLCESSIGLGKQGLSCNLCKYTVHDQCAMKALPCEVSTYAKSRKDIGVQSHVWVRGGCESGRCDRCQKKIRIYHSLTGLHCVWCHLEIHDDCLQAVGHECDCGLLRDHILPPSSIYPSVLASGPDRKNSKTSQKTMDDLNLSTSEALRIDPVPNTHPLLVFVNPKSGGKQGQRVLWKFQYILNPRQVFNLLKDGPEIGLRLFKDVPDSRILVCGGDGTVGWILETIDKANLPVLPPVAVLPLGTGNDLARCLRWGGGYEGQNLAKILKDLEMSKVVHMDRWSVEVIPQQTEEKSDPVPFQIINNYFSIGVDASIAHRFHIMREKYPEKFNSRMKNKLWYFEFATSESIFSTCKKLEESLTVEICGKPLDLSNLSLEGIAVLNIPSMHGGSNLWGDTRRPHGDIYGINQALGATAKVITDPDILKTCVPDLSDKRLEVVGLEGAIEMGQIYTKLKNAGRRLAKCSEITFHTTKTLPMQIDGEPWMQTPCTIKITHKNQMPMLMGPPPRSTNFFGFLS
Chain of DGKζ (Q13574 other isoform, or with tags, fused parts or gaps): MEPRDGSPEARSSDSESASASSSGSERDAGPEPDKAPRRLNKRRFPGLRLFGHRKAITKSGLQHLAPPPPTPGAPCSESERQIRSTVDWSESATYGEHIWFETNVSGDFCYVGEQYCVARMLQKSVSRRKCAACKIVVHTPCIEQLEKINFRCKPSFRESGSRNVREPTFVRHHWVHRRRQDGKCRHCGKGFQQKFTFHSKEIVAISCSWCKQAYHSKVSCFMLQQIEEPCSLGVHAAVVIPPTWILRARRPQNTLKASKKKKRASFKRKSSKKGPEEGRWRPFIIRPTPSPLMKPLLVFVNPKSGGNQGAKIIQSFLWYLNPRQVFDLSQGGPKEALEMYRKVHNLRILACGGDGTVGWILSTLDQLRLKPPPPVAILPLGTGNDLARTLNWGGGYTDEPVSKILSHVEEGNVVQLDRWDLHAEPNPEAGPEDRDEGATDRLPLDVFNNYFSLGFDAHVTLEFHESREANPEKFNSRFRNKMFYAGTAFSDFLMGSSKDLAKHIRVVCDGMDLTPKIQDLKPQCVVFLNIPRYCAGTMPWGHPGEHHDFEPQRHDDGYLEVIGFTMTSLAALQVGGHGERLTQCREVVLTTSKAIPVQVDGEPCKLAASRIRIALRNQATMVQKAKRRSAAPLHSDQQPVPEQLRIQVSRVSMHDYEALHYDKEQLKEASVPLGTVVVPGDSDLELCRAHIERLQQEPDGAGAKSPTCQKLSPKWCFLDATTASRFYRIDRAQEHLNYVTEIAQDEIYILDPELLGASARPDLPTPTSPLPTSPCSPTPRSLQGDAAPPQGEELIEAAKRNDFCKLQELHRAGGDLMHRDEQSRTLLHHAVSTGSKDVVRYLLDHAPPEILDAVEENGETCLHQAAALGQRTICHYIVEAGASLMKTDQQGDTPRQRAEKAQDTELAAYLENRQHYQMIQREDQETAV

IC50 (DGKζ): 42 nM | IC50 (DGKα): 212 nM
Compound: CC[C@@H]1CN(c2cc(=O)n(C)c3cc(CC#N)nn23)[C@@H](C)CN1[C@@H](C)c1ccc2ncsc2n1 (single isomer, unassigned) [Compound A29a]

IC50 (DGKζ): 1540 nM | IC50 (DGKα): 1590 nM
Compound: CC[C@@H]1CN(c2cc(=O)n(C)c3cc(CC#N)nn23)[C@@H](C)CN1[C@H](C)c1ccc2ncsc2n1 (single isomer, unassigned) [Compound A29b]

IC50 (DGKζ): 4690 nM | IC50 (DGKα): 2260 nM
Compound: CC[C@H]1CN(C(C)c2ccc3nc(C)sc3n2)[C@H](CC)CN1c1cc(=O)n(C)c2cc(CC#N)nn12 (single isomer, unassigned) [Compound A35a]

IC50 (DGKζ): 31 nM | IC50 (DGKα): 72 nM
Compound: CC[C@H]1CN(C(C)c2ccc3nc(C)sc3n2)[C@H](CC)CN1c1cc(=O)n(C)c2cc(CC#N)nn12 (single isomer, unassigned) [Compound A35b]

IC50 (DGKζ): 1580 nM | IC50 (DGKα): 200 nM
Compound: CC[C@H]1CN(C(C)c2ccc3cc(C(F)F)sc3n2)[C@H](CC)CN1c1cc(=O)n(C)c2cc(CC#N)nn12 (single isomer, unassigned) [Compound A37a]

IC50 (DGKζ): 83 nM | IC50 (DGKα): 24 nM
Compound: CC[C@H]1CN(C(C)c2ccc3cc(C(F)F)sc3n2)[C@H](CC)CN1c1cc(=O)n(C)c2cc(CC#N)nn12 (single isomer, unassigned) [Compound A37b]

IC50 (DGKζ): > 10000 nM | IC50 (DGKα): 3880 nM
Compound: CC[C@H]1CN(C(C)c2ccc3nc(C)cn3n2)[C@H](CC)CN1c1cc(=O)n(C)c2cc(CC#N)nn12 (single isomer, unassigned) [Compound A38a]

IC50 (DGKζ): 469 nM | IC50 (DGKα): 205 nM
Compound: CC[C@H]1CN(C(C)c2ccc3nc(C)cn3n2)[C@H](CC)CN1c1cc(=O)n(C)c2cc(CC#N)nn12 (single isomer, unassigned) [Compound A38b]

IC50 (DGKζ): > 10000 nM | IC50 (DGKα): 585 nM
Compound: CC[C@H]1CN(C(C)c2ccn3nccc3n2)[C@H](CC)CN1c1cc(=O)n(C)c2cc(CC#N)nn12 (single isomer, unassigned) [Compound A39a]

IC50 (DGKζ): 104 nM | IC50 (DGKα): 52 nM
Compound: CC[C@H]1CN(C(C)c2ccn3nccc3n2)[C@H](CC)CN1c1cc(=O)n(C)c2cc(CC#N)nn12 (single isomer, unassigned) [Compound A39b]

IC50 (DGKζ): 5770 nM | IC50 (DGKα): 1540 nM
Compound: CC[C@H]1CN(C(C)c2ccn3nc(C)cc3n2)[C@H](CC)CN1c1cc(=O)n(C)c2cc(CC#N)nn12 (single isomer, unassigned) [Compound A40a]

IC50 (DGKζ): 53 nM | IC50 (DGKα): 61 nM
Compound: CC[C@H]1CN(C(C)c2ccn3nc(C)cc3n2)[C@H](CC)CN1c1cc(=O)n(C)c2cc(CC#N)nn12 (single isomer, unassigned) [Compound A40b]

IC50 (DGKζ): 80 nM | IC50 (DGKα): 25 nM
Compound: CC[C@H]1CN(C(C)c2ccn3nc(F)cc3n2)[C@H](CC)CN1c1cc(=O)n(C)c2cc(CC#N)nn12 (single isomer, unassigned) [Compound A41a]

IC50 (DGKζ): 4560 nM | IC50 (DGKα): 1590 nM
Compound: CC[C@H]1CN(C(C)c2ccn3nc(F)cc3n2)[C@H](CC)CN1c1cc(=O)n(C)c2cc(CC#N)nn12 (single isomer, unassigned) [Compound A41b]

IC50 (DGKζ): 116 nM | IC50 (DGKα): 66 nM
Compound: CC[C@H]1CN(C(C)c2ccc3nc(C)cn3n2)[C@H](CC)CN1c1nc(=O)n(C)c2cc(CC#N)nn12 (single isomer, unassigned) [Compound A45b]

IC50 (DGKζ): 20 nM | IC50 (DGKα): 114 nM
Compound: CC[C@H]1CN(C(C)c2ccc3nc(C)sc3c2)[C@H](CC)CN1c1nc(=O)n(C)c2cc(CC#N)nn12 (single isomer, unassigned) [Compound A53a]

IC50 (DGKζ): 552 nM | IC50 (DGKα): 947 nM
Compound: CC[C@H]1CN(C(C)c2ccc3nc(C)sc3c2)[C@H](CC)CN1c1nc(=O)n(C)c2cc(CC#N)nn12 (single isomer, unassigned) [Compound A53b]

Continued, molecule first:

Compound: CC(c1ccc2nccnc2c1)N1C[C@H](C)N(c2cc(=O)n(C)c3cc(CC#N)nn23)C[C@H]1C (mixture of isomers) [Compound A2, 2-(7-((2S,5R)-2,5-dimethyl-4-(1-(quinoxalin-6-yl)ethyl)piperazin-1-yl)-4-methyl-5-oxo-4,5-dihydropyrazolo[1,5-a]pyrimidin-2-yl)acetonitrile]
IC50 (DGKζ): 50 nM | IC50 (DGKα): 3120 nM

Compound: CC(c1ccc2nccnc2c1)N1C[C@H](C)N(c2cc(=O)n(C)c3cc(CC#N)nn23)C[C@H]1C (single isomer, unassigned) [Compound A2a]
IC50 (DGKζ): 1710 nM | IC50 (DGKα): > 10000 nM

Compound: CC(c1ccc2nccnc2c1)N1C[C@H](C)N(c2cc(=O)n(C)c3cc(CC#N)nn23)C[C@H]1C (single isomer, unassigned) [Compound A2b]
IC50 (DGKζ): 32 nM | IC50 (DGKα): 6050 nM

Compound: CC[C@@H]1CN(c2cc(=O)[nH]c3cc(CC#N)nn23)[C@@H](C)CN1C(C)c1ccc2nccnc2c1 (single isomer, unassigned) [Compound A4a]
IC50 (DGKζ): 153 nM | IC50 (DGKα): 64900 nM

Compound: CC[C@@H]1CN(c2cc(=O)[nH]c3cc(CC#N)nn23)[C@@H](C)CN1C(C)c1ccc2nccnc2c1 (single isomer, unassigned) [Compound A4b]
IC50 (DGKζ): 7390 nM | IC50 (DGKα): > 10000 nM

Compound: CC(c1ccc2c(c1)OC(C)(C)CO2)N1C[C@H](C)N(c2c(C#N)c(=O)n(C)c3cc(CC#N)nn23)C[C@H]1C (single isomer, unassigned) [Compound A12a]
IC50 (DGKζ): 11 nM | IC50 (DGKα): 12500 nM

Compound: CC(c1ccc2c(c1)OC(C)(C)CO2)N1C[C@H](C)N(c2c(C#N)c(=O)n(C)c3cc(CC#N)nn23)C[C@H]1C (single isomer, unassigned) [Compound A12b]
IC50 (DGKζ): 1150 nM | IC50 (DGKα): 10400 nM

Compound: CC[C@@H]1CN(c2c(F)c(=O)n(C)c3cc(CC#N)nn23)[C@@H](C)CN1C(C)c1ccc(C2CC2)nc1 (single isomer, unassigned) [Compound A24a]
IC50 (DGKζ): 3870 nM | IC50 (DGKα): 2670 nM

Compound: CC[C@@H]1CN(c2c(F)c(=O)n(C)c3cc(CC#N)nn23)[C@@H](C)CN1C(C)c1ccc(C2CC2)nc1 (single isomer, unassigned) [Compound A24b]
IC50 (DGKζ): 2650 nM | IC50 (DGKα): 4480 nM

Compound: CC[C@@H]1CN(c2cc(=O)n(C)c3cc(CC#N)nn23)[C@@H](C)CN1C(C)c1ccc2ncsc2c1 (single isomer, unassigned) [Compound A28a]
IC50 (DGKζ): 21 nM | IC50 (DGKα): 233 nM

Compound: CC[C@@H]1CN(c2cc(=O)n(C)c3cc(CC#N)nn23)[C@@H](C)CN1C(C)c1ccc2ncsc2c1 (single isomer, unassigned) [Compound A28b]
IC50 (DGKζ): 2220 nM | IC50 (DGKα): 1470 nM

Compound: CC(c1ccc2nccnc2c1)N1CCC(c2cc(=O)n(C)c3cc(CC#N)nn23)C[C@H]1C (single isomer, unassigned) [Compound A33a]
IC50 (DGKζ): > 10000 nM | IC50 (DGKα): > 10000 nM

Compound: CC(c1ccc2nccnc2c1)N1CCC(c2cc(=O)n(C)c3cc(CC#N)nn23)C[C@@H]1C (single isomer, unassigned) [Compound A34a]
IC50 (DGKζ): 5710 nM | IC50 (DGKα): > 150000 nM

Compound: CC(c1ccc2nccnc2c1)N1CCC(c2cc(=O)n(C)c3cc(CC#N)nn23)C[C@@H]1C (single isomer, unassigned) [Compound A34b]
IC50 (DGKζ): > 10000 nM | IC50 (DGKα): > 150000 nM

Compound: CC[C@H]1CN(C(C)c2ccc3nc(C)cn3n2)[C@H](CC)CN1c1nc(=O)n(C)c2cc(CC#N)nn12 (single isomer, unassigned) [Compound A45a]
IC50 (DGKζ): > 10000 nM | IC50 (DGKα): 1880 nM

Compound: CC[C@H]1CN(C(C)c2ccc3nc(C)c(F)n3n2)[C@H](CC)CN1c1nc(=O)n(C)c2cc(CC#N)nn12 (single isomer, unassigned) [Compound A48a]
IC50 (DGKζ): > 10000 nM | IC50 (DGKα): 5330 nM

Compound: CC[C@H]1CN(C(C)c2ccc3nc(C)c(F)n3n2)[C@H](CC)CN1c1nc(=O)n(C)c2cc(CC#N)nn12 (single isomer, unassigned) [Compound A48b]
IC50 (DGKζ): 24 nM | IC50 (DGKα): 63 nM

Compound: CC[C@H]1CN(C(C)c2ccn3nc(C4CC4)cc3n2)[C@H](CC)CN1c1nc(=O)n(C)c2cc(CC#N)nn12 (single isomer, unassigned) [Compound A54a]
IC50 (DGKζ): 4900 nM | IC50 (DGKα): 485 nM

Compound: CC[C@H]1CN(C(C)c2ccn3nc(C4CC4)cc3n2)[C@H](CC)CN1c1nc(=O)n(C)c2cc(CC#N)nn12 (single isomer, unassigned) [Compound A54b]
IC50 (DGKζ): 19 nM | IC50 (DGKα): 69 nM

Compound: CC(c1ccc2nccnc2c1)N1C[C@H](C)N(c2cc(=O)n(C)c3cc(C#N)nn23)C[C@H]1C (stereo partly drawn) [Compound A1, 7-((2S,5R)-2,5-dimethyl-4-(1-(quinoxalin-6-yl)ethyl)piperazin-1-yl)-4-methyl-5-oxo-4,5-dihydropyrazolo[1,5-a]pyrimidine-2-carbonitrile]
IC50 (DGKζ): 1000 nM | IC50 (DGKα): 810 nM
